{"source": "patent US8748373B2", "about": "“Hepatitis B virus compositions and methods of use” (priority 2007, dated 2014)", "key": {"HDV": {"test_system": "HDV", "experiment": "Inhibition of HDV infection of primary human hepatocytes, antigenomic HDV RNA by real-time PCR", "assay_type": "cell-based", "conditions": "for Inhibition of HDV replication: 50 nM final concentration, primary human hepatocytes, 7 days", "excerpt": "(§1) In order to test inhibitory activity of the IA and related proteins, primary human hepatocytes infected in the presence of 5% polyethylene glycol 8000 (Sigma) were used with in vitro assembled HDV at a multiplicity of 10 genome equivalents (GE) per cell, or by HBV at a multiplicity of 50 GE/cell. […] One related protein was the S1S2, lacking the Fc domain (FIG. 1B). Another was a synthetic peptide corresponding to positions 2-48 of the ayw PreS1, with myristoylation at the N terminal glycine as described in Engelke, et al., 2006, Hepatology, 43:750-760. After 7-8 days total, cell RNA was extracted and HDV antigenomic RNA and HBV RNA were quantitated using real-time PCR.\nOthers have shown that peptides based on the N terminus of HBV preS1 are able to interfere with infection of primary hepatocytes and of HepaRG cells, a cell line made from a differentiated liver tumor (Gripon, et al., 2005, J. Virol., 79:1613-1622, Gripon, et al., 2002, Proc. Natl. Acad. Sci., USA 99:15655-15660). […] Secreted IAs were tested for their ability to interfere with the infection of primary human hepatocytes by HDV. For these studies the source of IA was simple dilutions of the media from transiently transfected cells that both expressed and secreted the IA. To assess HDV replication the total RNA was extracted after 7 days and antigenomic RNA was quantitated by real-time PCR."}, "HBV [1]": {"test_system": "HBV", "conditions": "patients chronically infected with HBV; cited from earlier work"}, "[2]": {"experiment": "Ultracentrifugation of media to test whether released IA is a soluble protein", "assay_type": "physicochemical", "conditions": "conditions that pellet HDV and HBV subviral particles", "excerpt": "In addition, experiments were designed to tested whether the released IA was actually a soluble protein. Media samples containing albumin and secreted […] were clarified by low speed centrifugation and then subjected to ultracentrifugation, using conditions that pellet HDV and HBV subviral particles. It was observed that about >85% of the albumin and S1S2-IA remained in the supernatant. Without wishing to be bound by any particular theory, it is believed that because the IAs behaved similar to albumin, than IAs were soluble proteins."}, "HBV [3]": {"test_system": "HBV", "experiment": "Inhibition of HBV infection of primary human hepatocytes, HBV RNA by real-time PCR", "assay_type": "cell-based, Hepatitis B virus", "excerpt": "as §1\nIn parallel with the experiment shown in FIG. 4B, experiments were designed to determined whether S1S2-IA would also act on HBV infection."}, "HBV [4]": {"test_system": "HBV", "conditions": "in vivo; cited from earlier work"}}, "data": [{"compound": "acylated peptide: synthetic peptide corresponding to positions 2-48 of the ayw PreS1, with myristoylation at the N terminal glycine [reference compound]", "values": [{"measurement": "Inhibition of HDV replication compared with S1-IA and S1S2-IA", "setting": "HDV; primary human hepatocytes, 2, 10 and 50 nM", "result": "more inhibition than the two IA"}]}, {"compound": "C=C1[C@H](CO)[C@@H](O)C[C@@H]1n1cnc2c(=O)[nH]c(N)nc21", "note": "[Entecavir]", "values": [{"measurement": "Suppression of HBV levels in serum", "setting": "HBV [1]", "result": "100,000 fold"}]}, {"compound": "S1-IA: immunoadhesin: HBV preS1 domain (1-119, adw2) fused N terminally to Fc region of a rabbit IgG heavy chain", "values": [{"measurement": "Inhibition of HDV replication", "setting": "HDV", "result": 90, "unit": "%"}]}, {"compound": "S1S2-IA: immunoadhesin: HBV preS1 plus preS2 domains fused to Fc region of a rabbit IgG heavy chain", "values": [{"measurement": "Fraction remaining in the supernatant after ultracentrifugation", "setting": "[2]", "result": "> 85", "unit": "%"}, {"measurement": "Inhibition of HDV replication", "setting": "HDV", "result": 90, "unit": "%"}, {"measurement": "Effect of 30 minute pretreatment on level of inhibition of HDV", "setting": "HDV; pretreatment in addition to treatment during infection", "result": "did not significantly increase the level of inhibition"}, {"measurement": "Inhibition of HBV infection compared with HDV infection", "setting": "HBV [3]; parallel experiments", "result": "not significantly different"}, {"measurement": "Inhibition of HBV infection", "setting": "HBV [3]; primary human hepatocytes, HBV RNA", "result": "there was inhibition"}]}, {"compound": "α-interferon", "values": [{"measurement": "Patients in whom effective", "setting": "HBV [4]", "result": "about 33%"}]}]}
